Experimental data from PubChem BioAssay (NCI).
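Five compound concentrations were applied to cells in 96-well plates for 48 hours; endpoints were derived by simple linear interpolation of the resulting dose-response curve. At the GI50, growth is halved. TGI: concentration producing complete growth inhibition.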

Columns and labels:
Test in all cases: NCI-60 cell line screen, 48 h
T-47D breast = test system: T-47D breast
IGROV1 ovarian = test system: IGROV1 ovarian
UACC-62 melanoma = test system: UACC-62 melanoma
UO-31 renal = test system: UO-31 renal
ACHN renal = test system: ACHN renal
CCRF-CEM leukemia = test system: CCRF-CEM leukemia
SNB-19 CNS = test system: SNB-19 CNS
TK-10 renal = test system: TK-10 renal
NCI-H460 lung = test system: NCI-H460 lung
NCI-H23 lung = test system: NCI-H23 lung
SK-MEL-2 melanoma = test system: SK-MEL-2 melanoma
SF-295 CNS = test system: SF-295 CNS
MALME-3M melanoma = test system: MALME-3M melanoma
HCT-15 colon = test system: HCT-15 colon
SNB-75 CNS = test system: SNB-75 CNS
OVCAR-3 ovarian = test system: OVCAR-3 ovarian
SF-268 CNS = test system: SF-268 CNS
KM12 colon = test system: KM12 colon
MCF7 breast = test system: MCF7 breast
MOLT-4 leukemia = test system: MOLT-4 leukemia
UACC-257 melanoma = test system: UACC-257 melanoma
PC-3 prostate = test system: PC-3 prostate
OVCAR-8 ovarian = test system: OVCAR-8 ovarian
SK-MEL-28 melanoma = test system: SK-MEL-28 melanoma
LOX IMVI melanoma = test system: LOX IMVI melanoma
OVCAR-4 ovarian = test system: OVCAR-4 ovarian
CAKI-1 renal = test system: CAKI-1 renal
SF-539 CNS = test system: SF-539 CNS
HS 578T breast = test system: HS 578T breast
M14 melanoma = test system: M14 melanoma
SN12C renal = test system: SN12C renal
A498 renal = test system: A498 renal
HOP-62 NSCLC = test system: HOP-62 NSCLC
786-0 renal = test system: 786-0 renal
MDA-MB-435 = test system: MDA-MB-435
HOP-92 NSCLC = test system: HOP-92 NSCLC
U251 CNS = test system: U251 CNS
NCI/ADR-RES ovarian = test system: NCI/ADR-RES ovarian
A549 NSCLC = test system: A549 NSCLC
SW-620 colon = test system: SW-620 colon
RPMI-8226 leukemia = test system: RPMI-8226 leukemia
SK-MEL-5 melanoma = test system: SK-MEL-5 melanoma
DU-145 prostate = test system: DU-145 prostate
SR leukemia = test system: SR leukemia
HT29 colon = test system: HT29 colon
OVCAR-5 ovarian = test system: OVCAR-5 ovarian
HL-60(TB) leukemia = test system: HL-60(TB) leukemia
HCT-116 colon = test system: HCT-116 colon
BT-549 breast = test system: BT-549 breast
K-562 leukemia = test system: K-562 leukemia
COLO 205 colon = test system: COLO 205 colon
SK-OV-3 ovarian = test system: SK-OV-3 ovarian
HCC-2998 colon = test system: HCC-2998 colon
NCI-H226 lung = test system: NCI-H226 lung
NCI-H522 lung = test system: NCI-H522 lung
MDA-MB-231 breast = test system: MDA-MB-231 breast
RXF 393 renal = test system: RXF 393 renal
EKVX NSCLC = test system: EKVX NSCLC

Cc1cccc(CNc2c3ccccc3nc3ccccc23)c1
GI50 (T-47D breast): 1.83 µM
TGI (T-47D breast): 4.61 µM
GI50 (IGROV1 ovarian): 2.17 µM
TGI (IGROV1 ovarian): 6.79 µM
GI50 (UACC-62 melanoma): 1.61 µM
TGI (UACC-62 melanoma): 3.48 µM
GI50 (UO-31 renal): 1.19 µM
TGI (UO-31 renal): 2.62 µM
GI50 (ACHN renal): 1.52 µM
TGI (ACHN renal): 3.47 µM
GI50 (CCRF-CEM leukemia): 2.77 µM
TGI (CCRF-CEM leukemia): 15 µM
GI50 (SNB-19 CNS): 3.07 µM
TGI (SNB-19 CNS): 13 µM
GI50 (TK-10 renal): 2.83 µM
TGI (TK-10 renal): 12.2 µM
GI50 (NCI-H460 lung): 1.99 µM
TGI (NCI-H460 lung): 5.03 µM
GI50 (NCI-H23 lung): 1.63 µM
TGI (NCI-H23 lung): 4.22 µM
GI50 (SK-MEL-2 melanoma): 1.94 µM
TGI (SK-MEL-2 melanoma): 4.14 µM
GI50 (SF-295 CNS): 2.13 µM
TGI (SF-295 CNS): 6.67 µM
GI50 (MALME-3M melanoma): 1.66 µM
TGI (MALME-3M melanoma): 3.17 µM
GI50 (HCT-15 colon): 1.83 µM
TGI (HCT-15 colon): 4.59 µM
GI50 (SNB-75 CNS): 1.08 µM
TGI (SNB-75 CNS): 8.32 µM
GI50 (OVCAR-3 ovarian): 2.29 µM
TGI (OVCAR-3 ovarian): 5.92 µM
GI50 (SF-268 CNS): 3.06 µM
TGI (SF-268 CNS): 11.8 µM
GI50 (KM12 colon): 3.16 µM
TGI (KM12 colon): 12.1 µM
GI50 (MCF7 breast): 1.9 µM
TGI (MCF7 breast): 4.88 µM
GI50 (MOLT-4 leukemia): 3.06 µM
TGI (MOLT-4 leukemia): 11.3 µM
GI50 (UACC-257 melanoma): 2.11 µM
TGI (UACC-257 melanoma): 5.05 µM
GI50 (PC-3 prostate): 1.99 µM
TGI (PC-3 prostate): 7.11 µM
GI50 (OVCAR-8 ovarian): 2.48 µM
TGI (OVCAR-8 ovarian): 9.82 µM
GI50 (SK-MEL-28 melanoma): 1.89 µM
TGI (SK-MEL-28 melanoma): 4.07 µM
GI50 (LOX IMVI melanoma): 1.49 µM
TGI (LOX IMVI melanoma): 2.9 µM
GI50 (OVCAR-4 ovarian): 1.74 µM
TGI (OVCAR-4 ovarian): 5.59 µM
GI50 (CAKI-1 renal): 1.61 µM
TGI (CAKI-1 renal): 5.03 µM
GI50 (SF-539 CNS): 1.67 µM
TGI (SF-539 CNS): 3.14 µM
GI50 (HS 578T breast): 2.2 µM
TGI (HS 578T breast): 6.6 µM
GI50 (M14 melanoma): 1.57 µM
TGI (M14 melanoma): 3.35 µM
GI50 (SN12C renal): 2.4 µM
TGI (SN12C renal): 10.1 µM
GI50 (A498 renal): 1.32 µM
TGI (A498 renal): 2.7 µM
GI50 (HOP-62 NSCLC): 3.14 µM
TGI (HOP-62 NSCLC): 16.1 µM
GI50 (786-0 renal): 1.89 µM
TGI (786-0 renal): 4.09 µM
GI50 (MDA-MB-435): 1.66 µM
TGI (MDA-MB-435): 3.22 µM
GI50 (HOP-92 NSCLC): 1.22 µM
TGI (HOP-92 NSCLC): 4.57 µM
GI50 (U251 CNS): 1.96 µM
TGI (U251 CNS): 5.54 µM
GI50 (NCI/ADR-RES ovarian): 1.85 µM
TGI (NCI/ADR-RES ovarian): 5.97 µM
GI50 (A549 NSCLC): 1.88 µM
TGI (A549 NSCLC): 4.86 µM
GI50 (SW-620 colon): 1.74 µM
TGI (SW-620 colon): 5.63 µM
GI50 (RPMI-8226 leukemia): 1.87 µM
TGI (RPMI-8226 leukemia): 4.94 µM
GI50 (SK-MEL-5 melanoma): 1.7 µM
TGI (SK-MEL-5 melanoma): 3.14 µM
GI50 (DU-145 prostate): 3.28 µM
TGI (DU-145 prostate): 11.7 µM
GI50 (SR leukemia): 1.94 µM
TGI (SR leukemia): 8.62 µM
GI50 (HT29 colon): 1.7 µM
TGI (HT29 colon): 10.1 µM
GI50 (OVCAR-5 ovarian): 1.92 µM
TGI (OVCAR-5 ovarian): 6.81 µM
GI50 (HL-60(TB) leukemia): 2.26 µM
TGI (HL-60(TB) leukemia): 5.28 µM
GI50 (HCT-116 colon): 0.927 µM
TGI (HCT-116 colon): 4.4 µM
GI50 (BT-549 breast): 2.34 µM
TGI (BT-549 breast): 6.32 µM
GI50 (K-562 leukemia): 2.23 µM
TGI (K-562 leukemia): 12.5 µM
GI50 (COLO 205 colon): 1.69 µM
TGI (COLO 205 colon): 3.89 µM
GI50 (SK-OV-3 ovarian): 2.61 µM
TGI (SK-OV-3 ovarian): 10.5 µM
GI50 (HCC-2998 colon): 1.55 µM
TGI (HCC-2998 colon): 3.4 µM
GI50 (NCI-H226 lung): 1.99 µM
TGI (NCI-H226 lung): 6.02 µM
GI50 (NCI-H522 lung): 1.53 µM
TGI (NCI-H522 lung): 4.67 µM
GI50 (MDA-MB-231 breast): 1.65 µM
TGI (MDA-MB-231 breast): 4.07 µM
GI50 (RXF 393 renal): 1.54 µM
TGI (RXF 393 renal): 3.07 µM
GI50 (EKVX NSCLC): 2.31 µM
TGI (EKVX NSCLC): 8.97 µM
